Test results published in the supplement of paper PMC10307832.

What follows are cell lines tested with O=C(/C=C/c1ccccc1)NC(NC(=S)Nc1cccc2cccnc12)C(Cl)(Cl)Cl [Salubrinal] + C[C@]1(O)C[C@@H](c2nc(-c3ccc4ccc(-c5ccccc5)nc4c3)c3c(N)nccn32)C1 [Linsitinib] (partner 1 µM) (assay: relative viability (nuclei count vs DMSO), 5 days (fraction); higher = more cells survive). Conditions: first compound 0.08 µM.
Procedure, shortened: (§1)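 Lung cancer cell lines in 1536-well plates got either a single drug or a fixed anchor-drug dose together with five library-drug doses (not always all listed) in √10 steps, by pin tool, on the day after seeding. Nuclei were counted after 5 days, and relative viability is the treated-to-vehicle ratio of nuclei counts. Values are medians of duplicate plates.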

Cell Line | relative viability
SK-MES-1 | 1.12
LU99A | 0.611
BEN | 1.15
HARA | 1.09
NCI-H322M | 1.1
LCLC-97TM1 | 0.222
NCI-H2009 | 1.16
A-427 | 1.12
NCI-H441 | 0.663
NCI-H661 | 0.701
NCI-H1734 | 0.931
NCI-H460 | 1.31
NCI-H2347 | 1.06
SK-LU-1 | 1.26
NCI-H1395 | 1.31
201T | 1.04

Cell Line | relative viability
NCI-H1915 | 1.02
HCC-827 | 0.992
LXF-289 | 1.04
NCI-H23 | 0.576
NCI-H647 | 1.26
CAL-12T | 0.754
NCI-H1651 | 1.09
EPLC-272H | 1.19
NCI-H2228 | 0.768
NCI-H1792 | 0.805
NCI-H1355 | 0.976
NCI-H3122 | 1.07
NCI-H1437 | 1.27
NCI-H1755 | 1.05
NCI-H2023 | 0.707
HCC-15 | 0.946

Same assay, conditions: first compound 0.253 µM

Cell Line | relative viability
SK-MES-1 | 1.04
LU99A | 0.545
BEN | 0.624
HARA | 0.905
NCI-H322M | 0.858
LCLC-97TM1 | 0.214
NCI-H2009 | 1.17
A-427 | 1.2
NCI-H441 | 0.438
NCI-H661 | 0.464
NCI-H1734 | 0.858
NCI-H460 | 0.586
NCI-H2347 | 1
SK-LU-1 | 1.19
NCI-H1395 | 1.12
201T | 0.982

Cell Line | relative viability
NCI-H1915 | 1.06
HCC-827 | 0.9
LXF-289 | 0.861
NCI-H23 | 0.473
NCI-H647 | 1.26
CAL-12T | 0.883
NCI-H1651 | 0.692
EPLC-272H | 0.832
NCI-H2228 | 0.813
NCI-H1355 | 0.797
NCI-H3122 | 1.06
NCI-H1437 | 0.691
NCI-H1755 | 0.869
NCI-H2023 | 0.573
HCC-15 | 0.801

Same assay, conditions: first compound 0.8 µM

Cell Line | relative viability
SK-MES-1 | 1.05
LU99A | 0.579
BEN | 1.23
HARA | 0.936
NCI-H322M | 0.927
LCLC-97TM1 | 0.221
NCI-H2009 | 1.28
A-427 | 1.1
NCI-H441 | 0.643
NCI-H661 | 0.509
NCI-H1734 | 1.02
NCI-H460 | 1
NCI-H2347 | 1.06
SK-LU-1 | 1.37
NCI-H1395 | 1.09
201T | 1.09

Cell Line | relative viability
NCI-H1915 | 1.16
HCC-827 | 1
LXF-289 | 1.03
NCI-H23 | 0.516
NCI-H647 | 1.48
CAL-12T | 0.971
NCI-H1651 | 1.06
EPLC-272H | 1.37
NCI-H2228 | 0.791
NCI-H1792 | 0.606
NCI-H1355 | 0.856
NCI-H3122 | 0.984
NCI-H1437 | 1.19
NCI-H1755 | 1.03
NCI-H2023 | 0.676
HCC-15 | 0.952

Same assay, conditions: first compound 2.53 µM

Cell Line | relative viability
SK-MES-1 | 1.07
LU99A | 0.59
BEN | 0.931
HARA | 0.898
NCI-H322M | 0.891
NCI-H2009 | 1.2
A-427 | 1.08
NCI-H441 | 0.649
NCI-H661 | 0.561
NCI-H1734 | 0.976
NCI-H460 | 0.813
NCI-H2347 | 1.15
SK-LU-1 | 1.02
NCI-H1395 | 0.998
201T | 1.07
NCI-H1915 | 1.1
HCC-827 | 0.97
LXF-289 | 0.968
NCI-H23 | 0.67
NCI-H647 | 1.07
CAL-12T | 0.806
EPLC-272H | 1.27
NCI-H2228 | 0.581
NCI-H1792 | 0.482
NCI-H1355 | 0.89
NCI-H3122 | 1.06
NCI-H1437 | 1.06
NCI-H1755 | 1
NCI-H2023 | 0.777
HCC-15 | 0.964

Same assay, conditions: first compound 8 µM

Cell Line | relative viability
SK-MES-1 | 1.08
LU99A | 0.515
BEN | 0.892
HARA | 0.99
NCI-H322M | 0.823
LCLC-97TM1 | 0.243
NCI-H2009 | 1.14
A-427 | 1.22
NCI-H441 | 0.517
NCI-H661 | 0.464
NCI-H1734 | 0.826
NCI-H460 | 0.564
NCI-H2347 | 0.963
SK-LU-1 | 1.16
NCI-H1395 | 1.15
201T | 0.97

Cell Line | relative viability
NCI-H1915 | 1.13
HCC-827 | 0.941
LXF-289 | 0.893
NCI-H23 | 0.535
NCI-H647 | 1.27
CAL-12T | 0.726
NCI-H1651 | 0.968
EPLC-272H | 1.05
NCI-H2228 | 0.629
NCI-H1792 | 0.457
NCI-H1355 | 0.751
NCI-H3122 | 0.987
NCI-H1437 | 0.853
NCI-H1755 | 0.947
NCI-H2023 | 0.706
HCC-15 | 0.87

What follows are cell lines tested with Cc1ccc2nc(NCCN)c3ncc(C)n3c2c1 + Cc1nc(NC(=O)N2CCC[C@H]2C(N)=O)sc1-c1ccnc(C(C)(C)C(F)(F)F)c1 [Alpelisib] (partner 2 µM) in the same assay as above. Conditions: first compound 0.04 µM.
Procedure, shortened: as §1

Cell Line | relative viability
SK-MES-1 | 0.904
LU99A | 0.59
BEN | 1.06
HARA | 0.839
NCI-H322M | 0.948
LCLC-97TM1 | 0.321
NCI-H2009 | 1.23
A-427 | 1.09
NCI-H441 | 0.646
NCI-H661 | 0.82
NCI-H1734 | 0.699
NCI-H460 | 0.54
NCI-H2347 | 1.06
SK-LU-1 | 1.11
NCI-H1395 | 1.05
201T | 1.03

Cell Line | relative viability
NCI-H1915 | 0.999
HCC-827 | 0.964
LXF-289 | 1.1
NCI-H23 | 0.893
NCI-H647 | 1.05
CAL-12T | 1.17
NCI-H1651 | 0.996
EPLC-272H | 1.07
NCI-H2228 | 0.626
NCI-H1792 | 0.696
NCI-H1355 | 0.783
NCI-H3122 | 0.88
NCI-H1437 | 0.926
NCI-H1755 | 0.978
NCI-H2023 | 0.637
HCC-15 | 0.879

Same assay, conditions: first compound 0.1265 µM

Cell Line | relative viability
SK-MES-1 | 0.848
LU99A | 0.539
BEN | 0.787
HARA | 0.831
NCI-H322M | 0.755
LCLC-97TM1 | 0.241
NCI-H2009 | 1.17
A-427 | 1.13
NCI-H441 | 0.719
NCI-H661 | 0.79
NCI-H1734 | 0.634
NCI-H460 | 0.495
NCI-H2347 | 0.978
SK-LU-1 | 0.961
NCI-H1395 | 1.3
201T | 1.01

Cell Line | relative viability
HCC-827 | 1.02
LXF-289 | 1.01
NCI-H23 | 0.572
NCI-H647 | 1.01
CAL-12T | 1.11
NCI-H1651 | 0.885
EPLC-272H | 0.937
NCI-H2228 | 0.639
NCI-H1792 | 0.678
NCI-H1355 | 0.862
NCI-H3122 | 0.942
NCI-H1437 | 0.914
NCI-H1755 | 0.928
NCI-H2023 | 0.573
HCC-15 | 0.906

Same assay, conditions: first compound 0.4 µM

Cell Line | relative viability
SK-MES-1 | 0.846
LU99A | 0.576
BEN | 1.09
HARA | 0.804
NCI-H322M | 0.798
LCLC-97TM1 | 0.225
NCI-H2009 | 1.16
A-427 | 1.05
NCI-H441 | 0.843
NCI-H661 | 0.812
NCI-H1734 | 0.668
NCI-H460 | 0.476
NCI-H2347 | 1.06
SK-LU-1 | 1.1
NCI-H1395 | 1.08
201T | 1.02

Cell Line | relative viability
NCI-H1915 | 1.1
HCC-827 | 0.941
LXF-289 | 0.984
NCI-H23 | 0.797
NCI-H647 | 1.06
CAL-12T | 1.3
NCI-H1651 | 0.905
EPLC-272H | 0.896
NCI-H2228 | 0.974
NCI-H1792 | 0.615
NCI-H1355 | 0.819
NCI-H3122 | 0.812
NCI-H1437 | 1.02
NCI-H1755 | 0.898
NCI-H2023 | 0.616
HCC-15 | 0.93

Same assay, conditions: first compound 1.265 µM

Cell Line | relative viability
SK-MES-1 | 0.866
LU99A | 0.609
BEN | 0.807
HARA | 0.715
NCI-H322M | 0.641
LCLC-97TM1 | 0.183
NCI-H2009 | 1.19
A-427 | 1.07
NCI-H441 | 0.746
NCI-H1734 | 0.605
NCI-H460 | 0.382
NCI-H2347 | 0.91
SK-LU-1 | 1.01
NCI-H1395 | 1.19
201T | 1.05
NCI-H1915 | 1.02

Cell Line | relative viability
HCC-827 | 0.958
LXF-289 | 1.06
NCI-H23 | 0.614
NCI-H647 | 1.26
CAL-12T | 1.25
NCI-H1651 | 0.936
EPLC-272H | 1.06
NCI-H2228 | 0.832
NCI-H1792 | 0.527
NCI-H1355 | 0.763
NCI-H3122 | 0.779
NCI-H1437 | 0.904
NCI-H1755 | 0.962
NCI-H2023 | 0.563
HCC-15 | 0.868

Same assay, conditions: first compound 4 µM

Cell Line | relative viability
SK-MES-1 | 0.848
LU99A | 0.464
BEN | 1.19
HARA | 0.788
NCI-H322M | 0.766
LCLC-97TM1 | 0.194
NCI-H2009 | 1.05
A-427 | 1.14
NCI-H441 | 0.928
NCI-H661 | 0.474
NCI-H1734 | 0.685
NCI-H460 | 0.374
NCI-H2347 | 1.01
SK-LU-1 | 0.937
NCI-H1395 | 0.888
201T | 1.02

Cell Line | relative viability
NCI-H1915 | 1.07
HCC-827 | 0.905
LXF-289 | 1.03
NCI-H23 | 0.696
NCI-H647 | 1
CAL-12T | 0.992
NCI-H1651 | 0.834
EPLC-272H | 0.96
NCI-H2228 | 0.613
NCI-H1792 | 0.661
NCI-H1355 | 0.797
NCI-H3122 | 0.855
NCI-H1437 | 0.907
NCI-H1755 | 0.908
NCI-H2023 | 0.549
HCC-15 | 0.814
